According to patent US20260216180A1, “QUINOLINE DERIVATIVE COMPOUNDS OR PHARMACEUTICALLY ACCEPTABLE SALT THEREOF, PREPARATION METHOD THEREFOR AND USE THEREOF” (JIANGSU CAREPHAR PHARMACEUTICAL CO.,LTD., priority 2023, published 2026):
Read-outs that look alike come from different tables or passages of the source.

Tests used:
IL-6 = assay: Macrophage IL-6 secretion after LPS (ELISA); type: cell-based; details: Bone marrow macrophage, compared to 0 μM, mouse bone marrow macrophages, 200 ng/ml LPS, 6 hours, read-out: Inhibition rate of IL-6 at 10 μM concentration
Method: Pharmacological Activity Test: Regulatory Effect of Quinoline Derivatives on Macrophage IL-6 and TNF-α Secretion
Mouse bone marrow cells were isolated from the femur and tibia bone marrow of […] mice of 6-8 week old raised under SPF conditions and inoculated in 6-well plates at a density of 1.5*10^6 cells/well/2 mL. 50 ng/mL M-CSF was added to each well and the cells were cultured in a CO2 incubator for 3 days. On the third day, the culture medium was replaced with fresh medium containing 100 ng/mL M-CSF and the culture was continued for 3 days. On the 6th day, the supernatant was removed and the cells were washed once with DPBS. After adding 1 mL of DPBS, the macrophages were harvested using a cell scraper, centrifuged at 400 g for 10 min, and the supernatant was discarded. The cells were resuspended in fresh culture medium containing 50 ng/mL M-CSF, inoculated in a 96-well plate at a density of 2*10^4 cells/well/200 μL, and cultured in a CO2 incubator overnight. 0, 3, 5, […] of the test compound were added to each well (wherein well 0 contains 0.1% DMSO) respectively and incubate in a CO2 incubator for 1 hour. Then 200 ng/ml LPS was added and the cell supernatant was collected after 6 hours of co-culture. ELISA kits were used to detect the secretion levels of IL-6 and TNF-α.

CYP1A2 = target: T1, CYP1A2 (Homo sapiens, UniProt P05177); assay: CYP enzyme inhibition, human liver microsomes, CYP1A2; type: in vitro ADME; details: probe substrate Phenacetin; for IC50: read-out: IC50 CYP 1A2
T1 construct: Commercially available mixed human liver microsomes were used; from tissue; host or cells: pooled human liver microsomes
T1 sequence (P05177 1-516): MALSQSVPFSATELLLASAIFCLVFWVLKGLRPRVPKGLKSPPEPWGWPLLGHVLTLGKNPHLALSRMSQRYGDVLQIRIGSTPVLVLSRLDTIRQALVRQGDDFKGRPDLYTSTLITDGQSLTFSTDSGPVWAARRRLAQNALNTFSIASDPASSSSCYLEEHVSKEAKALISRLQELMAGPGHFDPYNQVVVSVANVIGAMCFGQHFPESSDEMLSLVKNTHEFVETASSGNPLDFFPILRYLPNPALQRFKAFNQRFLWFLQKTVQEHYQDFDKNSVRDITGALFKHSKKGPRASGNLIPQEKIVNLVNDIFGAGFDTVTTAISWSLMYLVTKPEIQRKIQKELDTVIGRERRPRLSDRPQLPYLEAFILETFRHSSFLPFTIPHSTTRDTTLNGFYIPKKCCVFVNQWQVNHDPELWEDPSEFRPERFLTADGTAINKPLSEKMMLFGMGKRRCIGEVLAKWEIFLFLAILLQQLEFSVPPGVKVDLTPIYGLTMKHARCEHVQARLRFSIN
Method: (§1) Commercially available mixed human liver microsomes were used, with the liver microsome concentrations of diclofenac, dextromethorphan, and midazolam being 0.1 mg/mL; and the liver microsome concentrations of phenacetin, bupropion, amodiaquine, mephenytoin, and testosterone being 0.2 mg/mL. Probe substrate, specific inhibitor and test compound (ABX464, compound 18) were diluted to the corresponding concentration of working solution for use. A mixed solution containing liver microsomes, MgCl2, substrate, […] inhibitor, and the test compound was prepared. After the incubation, 600 μL of ice-cold ACN working solution containing IS was added to terminate the reaction, and the mixture was centrifuged and used for LC-MS/MS detection. [table] At different concentrations of the test compound or positive inhibitor, the percentage of remaining activity is determined by the ratio of the amount of characteristic metabolites of the probe substrate generated to the corresponding amount generated in the absence of the test compound or positive inhibitor. If a significant decrease in the amount of metabolite production is found at the highest concentration setting point, the half inhibitory concentration (IC50) will be calculated using the log(inhibitor) vs. response—Variable slope formula of GraphPad Prism software: Y=Bottom+(Top−Bottom)/(1+10^((Log IC50−X)*Hillslope)) • X: Log (test compound or positive inhibitor concentration); • Y: Remaining activity percentage; • Top and Bottom: refer to the theoretical maximum and minimum remaining activity percentages respectively; and • Hillslope: slope coefficient or slope. If there is no significant decrease in metabolite production at the highest concentration setting point (percentage of enzyme remaining activity […]), the half inhibitory concentration (IC50) cannot be accurately calculated, and the reported IC50 is greater than the highest concentration tested.

CYP2B6 = target: T2, CYP2B6 (Homo sapiens, UniProt P20813); assay: CYP enzyme inhibition, human liver microsomes, CYP2B6; type: in vitro ADME; details: probe substrate Bupropion, read-out: IC50 CYP 2B6
T2 construct: Commercially available mixed human liver microsomes were used; from tissue; host or cells: pooled human liver microsomes
T2 sequence (P20813 1-491): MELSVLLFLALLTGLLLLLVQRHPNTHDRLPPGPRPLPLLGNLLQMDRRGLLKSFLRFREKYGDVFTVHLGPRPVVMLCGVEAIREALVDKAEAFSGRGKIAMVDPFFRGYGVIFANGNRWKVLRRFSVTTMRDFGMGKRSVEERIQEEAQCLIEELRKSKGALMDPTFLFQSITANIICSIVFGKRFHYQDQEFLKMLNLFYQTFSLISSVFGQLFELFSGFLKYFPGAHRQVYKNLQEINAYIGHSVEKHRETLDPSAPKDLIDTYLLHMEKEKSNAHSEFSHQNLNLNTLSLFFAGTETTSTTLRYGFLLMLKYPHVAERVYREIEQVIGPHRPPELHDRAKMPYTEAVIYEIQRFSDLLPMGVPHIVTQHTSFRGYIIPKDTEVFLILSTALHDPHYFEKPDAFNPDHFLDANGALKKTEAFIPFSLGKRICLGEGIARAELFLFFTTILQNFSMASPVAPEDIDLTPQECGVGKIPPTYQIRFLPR
Method: (§2) Commercially available mixed human liver microsomes were used, with the liver microsome concentrations of diclofenac, dextromethorphan, and midazolam being 0.1 mg/mL; and the liver microsome concentrations of phenacetin, bupropion, amodiaquine, mephenytoin, and testosterone being 0.2 mg/mL. Probe substrate, specific inhibitor and test compound (ABX464, compound 18) were diluted to the corresponding concentration of working solution for use. A mixed solution containing liver microsomes, MgCl2, substrate, […] inhibitor, and the test compound was prepared. After the incubation, 600 μL of ice-cold ACN working solution containing IS was added to terminate the reaction, and the mixture was centrifuged and used for LC-MS/MS detection. [table] At different concentrations of the test compound or positive inhibitor, the percentage of remaining activity is determined by the ratio of the amount of characteristic metabolites of the probe substrate generated to the corresponding amount generated in the absence of the test compound or positive inhibitor. […]

CYP2C9 = target: T3, CYP2C9 (Homo sapiens, UniProt P11712); assay: CYP enzyme inhibition, human liver microsomes, CYP2C9; type: in vitro ADME; details: probe substrate Diclofenac, read-out: IC50 CYP 2C9
T3 construct: Commercially available mixed human liver microsomes were used; from tissue; host or cells: pooled human liver microsomes
T3 sequence (P11712 whole entry): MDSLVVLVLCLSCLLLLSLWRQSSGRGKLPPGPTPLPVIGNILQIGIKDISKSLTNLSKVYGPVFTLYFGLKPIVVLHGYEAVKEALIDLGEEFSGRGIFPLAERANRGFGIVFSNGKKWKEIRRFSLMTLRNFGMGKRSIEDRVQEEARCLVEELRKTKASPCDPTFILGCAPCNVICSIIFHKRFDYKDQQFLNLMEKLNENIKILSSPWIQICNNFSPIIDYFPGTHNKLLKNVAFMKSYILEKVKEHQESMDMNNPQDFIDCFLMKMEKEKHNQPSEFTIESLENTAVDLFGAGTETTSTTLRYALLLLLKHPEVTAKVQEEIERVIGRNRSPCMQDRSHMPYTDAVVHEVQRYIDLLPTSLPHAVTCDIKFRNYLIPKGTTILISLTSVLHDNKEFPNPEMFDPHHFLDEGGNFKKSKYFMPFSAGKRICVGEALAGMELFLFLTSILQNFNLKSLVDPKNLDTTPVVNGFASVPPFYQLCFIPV
Method: as §2

CYP3A4 = target: T4, CYP3A4 (Homo sapiens, UniProt P08684); assay: CYP enzyme inhibition, human liver microsomes, CYP3A4; type: in vitro ADME
T4 construct: Commercially available mixed human liver microsomes were used; from tissue; host or cells: pooled human liver microsomes
T4 sequence (P08684 whole entry): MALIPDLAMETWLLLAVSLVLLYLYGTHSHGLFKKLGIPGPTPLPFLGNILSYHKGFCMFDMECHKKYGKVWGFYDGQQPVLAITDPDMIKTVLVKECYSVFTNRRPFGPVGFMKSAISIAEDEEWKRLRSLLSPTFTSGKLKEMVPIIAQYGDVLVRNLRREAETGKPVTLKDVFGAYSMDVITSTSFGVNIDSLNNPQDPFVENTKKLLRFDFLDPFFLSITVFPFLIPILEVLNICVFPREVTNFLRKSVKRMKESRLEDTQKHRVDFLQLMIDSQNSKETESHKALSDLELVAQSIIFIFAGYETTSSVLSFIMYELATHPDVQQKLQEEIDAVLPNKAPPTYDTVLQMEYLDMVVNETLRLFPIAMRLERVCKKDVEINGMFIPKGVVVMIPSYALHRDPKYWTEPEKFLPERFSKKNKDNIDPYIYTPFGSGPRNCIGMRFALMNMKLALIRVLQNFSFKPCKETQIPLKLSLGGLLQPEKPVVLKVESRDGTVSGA
Method: as §1

[1] = probe substrate Midazolam, read-out: IC50 CYP 3A4-Midazolam
[2] = probe substrate Testosterone, read-out: IC50 CYP 3A4-Testosterone

IC50 (CYP1A2) | IC50 (CYP2B6) | IC50 (CYP2C9) | IC50 (CYP3A4; [1]) | IC50 (CYP3A4; [2]) | IC50 CYP 1A2 (CYP1A2) | Compound | inhibition at 10 µM (IL-6)
0.097 µM | 86.7 µM | 15.1 µM | 73 µM | > 100 µM | – | FC(F)(F)Oc1ccc(Nc2ccc3cccc(Cl)c3n2)cc1 [ABX464, reference compound] | 61%
21.6 µM | > 100 µM | 20.2 µM | > 100 µM | > 100 µM | significantly superior to ABX464 | Fc1cc(Cl)c2nc(Nc3ccc(C4(C(F)(F)F)CC4)cc3)ccc2c1 [Compound 18, 8-chloro-6-fluoro-N-(4-(1-(trifluoromethyl)cyclopropyl)phenyl)quinolin-2-amine] | 88%
